Laboratory results as given in patent publication US9351989B2, “Substituted purine nucleosides, phosphoroamidate and phosphorodiamidate derivatives for treatment of viral infections” (INHIBITEX, INC., priority 2010, dated 2016).

Key:
[1] = tested on: HCV replicon (Genotype 1b); test: Luciferase genotype 1b replicon potency assay; format: cell-based; settings: Hepatitis C virus, Huh-7; luciferase-reporter genotype 1b subgenomic replicon cell line (Huh7); Renilla luciferase reporter activity
Protocol: (§1) Further to the above Examples, representative compounds, prepared according to the examples were tested for potency in an HCV replicon assay (Genotype 1b) for activity against the virus (EC50) and toxicity to the cells (CC50).
Huh7 Replicon Cell Lines and Cell Culture Conditions:
(§2) A luciferase-reporter genotype 1b subgenomic replicon cell line, and a genotype 1a full-length replicon cell line were obtained from Apath, LLC, Brooklyn, N.Y.: All cell lines were passaged twice a week by splitting 4 or 6 fold. Cells were maintained in DMEM-high glucose medium (HyClone, Logan, Utah) supplemented with 9% FBS (HyClone), 2 mM glutamine (Invitrogen, Carlsbad, Calif.), 100 U/mL PenStrep (Invitrogen). Media also contained 0.25 mg/mL of the antibiotic G-418 to maintain stable expression of the replicon (Invitrogen). Incubation was performed at 37° C. in 5% CO2 atmosphere. Replicon cell lines were used until they accumulated 15-to-18 passages, after which cells were restarted from the frozen stock. Seeding cell counts were routinely determined using an automatic Cedex HiRes cell counter (Flownomics Analytical Instruments, Madison, Wis.) or manually using INCYTO C—Chip™ Disposable Hemacytometers (Fisher Scientific, Pittsburgh, Pa.).
The anti-HCV assays were done accordingly:
Luciferase Genotype 1b Replicon Potency Assay.
Replicon cells were seeded into white 96-well plates (Nunc/VWR) at a density of 2×10^4 cells/well in medium without G-418. A Stacker Multidrop Liquid Dispenser (MTX Lab Systems, Vienna, Va.) was employed to ensure uniform and fast cell seeding into multiple plates. 18-24 h after cell plating, inhibitors were added and cells were incubated for additional 24, 48, or 72 h (as indicated). Compounds were tested in triplicates and quadruplicates at 3× or 4× serial dilutions over a range of 0.0001-to-10 μM concentrations. HCV replication was monitored by Renilla luciferase reporter activity assay using Renilla luciferase reporter (Promega, Madison, Wis.) and a Veritas Luminometer (Turner Biosystems, Sunnyvale, Calif.). 50% and 90% inhibitory concentration (IC50 and IC90) values were calculated as the concentration of compound that results correspondingly in 50% and 90% decreases in the reporter expression as compared to untreated cells. The values were determined by non-linear regression (four-parameter sigmoidal curve fitting) analysis.

[2] = Cytotoxicity assay (CellTiter-Glo); format: cell-based; settings: human, toxicity to the cells, 72 h incubation, CellTiter-Glo cell viability
Protocol: as §1, §2
The cell cytotoxicity assay data was obtained as described below:
Cells were seeded into 96-well plates at a density of 2×10^4 cells per well. 24 h after cell plating, 11 serial 2× compound dilutions, starting with 100 μM, were applied to the testing plates (3 repeats per compound dilution). Each testing plate was run with a “no-compound” control. Incubation with compounds was continued at 37° C. in a CO2 incubator for 72 h. To determine cell viability, the CellTiter-Glo® assay (Promega, Madison, Wis.) was performed according to the manufacturer's protocol. The compound concentration resulting in 50% luminescent signal was reported as the CC50 concentration.

[3] = Huh7 HCV genotype 1b replicon cells

Row | SMILES | IC50 [1] | CC50 at 72 h [2, 3] | CC50 at 72 h [2]
1 | COc1nc(N)nc2c1nc(I)n2[C@@H]1O[C@H](CO)[C@@H](O)[C@@]1(C)O [Example 3, (2R,3R,4R,5R)-2-(2-Amino-8-iodo-6-methoxy-9H-purin-9-yl)-5-(hydroxymethyl)-3-methyltetrahydrofuran-3,4-diol] | 6100 nM | > 100 µM | 
2 | COc1nc(N)nc2c1nc(Br)n2[C@@H]1O[C@H](CO)[C@@H](O)[C@@]1(C)O [Example 5, (2R,3R,4R,5R)-2-(2-Amino-8-bromo-6-methoxy-9H-purin-9-yl)-5-(hydroxymethyl)-3-methyltetrahydrofuran-3,4-diol] | > 100000 nM | > 100 µM | 
3 | COc1nc(N)nc2c1nc(Cl)n2[C@@H]1O[C@H](CO)[C@@H](O)[C@@]1(C)O [Example 6, (2R,3R,4R,5R)-2-(2-Amino-8-chloro-6-methoxy-9H-purin-9-yl)-5-(hydroxymethyl)-3-methyltetrahydrofuran-3,4-diol] | > 100000 nM | > 100 µM | 
4 | COc1nc(N)nc2c1nc(I)n2[C@@H]1O[C@H](COP(=O)(N[C@@H](C)C(=O)OCc2ccccc2)Oc2cccc3ccccc23)[C@@H](O)[C@@]1(C)O (stereo partly drawn) [Example 7] | 31 nM |  | 18 µM
5 | COc1nc(N)nc2c1nc(I)n2[C@@H]1O[C@H](COP(=O)(N[C@@H](C)C(=O)OCc2ccc(F)cc2F)Oc2cccc3ccccc23)[C@@H](O)[C@@]1(C)O (stereo partly drawn) [Example 8, (2S)-2,4-Difluorobenzyl 2-((((2R,3R,4R,5R)-5-(2-Amino-8-iodo-6-methoxy-9H-purin-9-yl)-3,4-dihydroxy-4-methyltetrahydrofuran-2-yl)methoxy)(naphthalen-1-yloxy)phosphorylamino)propanoate] | 9 nM |  | 8.1 µM
6 | CCCOC(=O)[C@H](C)NP(=O)(OC[C@H]1O[C@@H](n2c(I)nc3c(OC)nc(N)nc32)[C@](C)(O)[C@@H]1O)Oc1cccc2ccccc12 (stereo partly drawn) [Example 9, (2S)-Propyl 2-((((2R,3R,4R,5R)-5-(2-Amino-8-iodo-6-methoxy-9H-purin-9-yl)-3,4-dihydroxy-4-methyltetrahydrofuran-2-yl)methoxy)(naphthalen-1-yloxy)phosphorylamino)propanoate] | 9 nM |  | 6 µM
7 | CCCCOC(=O)[C@H](C)NP(=O)(OC[C@H]1O[C@@H](n2c(I)nc3c(OC)nc(N)nc32)[C@](C)(O)[C@@H]1O)Oc1cccc2ccccc12 (stereo partly drawn) [Example 10, (2S)-Butyl 2-((((2R,3R,4R,5R)-5-(2-Amino-8-iodo-6-methoxy-9H-purin-9-yl)-3,4-dihydroxy-4-methyltetrahydrofuran-2-yl)methoxy)(naphthalen-1-yloxy)phosphorylamino)propanoate] | 11 nM |  | 7.9 µM
8 | CCCCCOC(=O)[C@H](C)NP(=O)(OC[C@H]1O[C@@H](n2c(I)nc3c(OC)nc(N)nc32)[C@](C)(O)[C@@H]1O)Oc1cccc2ccccc12 (stereo partly drawn) [Example 11, (2S)-Pentyl 2-((((2R,3R,4R,5R)-5-(2-Amino-8-iodo-6-methoxy-9H-purin-9-yl)-3,4-dihydroxy-4-methyltetrahydrofuran-2-yl)methoxy)(naphthalen-1-yloxy)phosphorylamino)propanoate] | 12 nM |  | 11 µM
9 | COc1nc(N)nc2c1nc(I)n2[C@@H]1O[C@H](COP(=O)(N[C@@H](C)C(=O)OCC(C)(C)C)Oc2cccc3ccccc23)[C@@H](O)[C@@]1(C)O (stereo partly drawn) [Example 12, (2S)-Neopentyl 2-((((2R,3R,4R,5R)-5-(2-Amino-8-iodo-6-methoxy-9H-purin-9-yl)-3,4-dihydroxy-4-methyltetrahydrofuran-2-yl)methoxy)(naphthalen-1-yloxy)phosphorylamino)propanoate] | 20 nM |  | 14 µM
